Tests used:
[1] = biological target: JAK3 (Homo sapiens (Human), UniProt P52333); experiment: Biochemical JAK3 kinase assay (LanthaScreen)
Protocol: (§1) Assay 1: Biochemical JAK and Tyk2 Kinase Assays
(§2) A panel of four LanthaScreen JAK biochemical assays (JAK1, 2, 3 and Tyk2) were carried in a common kinase reaction buffer (50 mM HEPES, pH 7.5, 0.01% Brij-35, 10 mM MgCl2, and 1 mM EGTA). Recombinant GST-tagged JAK enzymes and a GFP-tagged STAT1 peptide substrate were obtained from Life Technologies.
(§3) Serially or discretely diluted compounds were pre-incubated with each of the four JAK enzymes and the substrate in white 384-well microplates (Corning) at ambient temperature for 1 h. ATP was subsequently added to initiate the kinase reactions in 10 μL total volume, with 1% DMSO. […] Kinase reactions were allowed to proceed for 1 hour at ambient temperature before a 10 μL preparation of EDTA (10 mM final concentration) and Tb-anti-pSTAT1 (pTyr701) antibody (Life Technologies, 2 nM final concentration) in TR-FRET dilution buffer (Life Technologies) was added. The plates were allowed to incubate at ambient temperature for 1 h before being read on the EnVision reader (Perkin Elmer). Emission ratio signals (520 nm/495 nm) were recorded and utilized to calculate the percent inhibition values based on DMSO and background controls.
(§4) For dose-response analysis, percent inhibition data were plotted vs. compound concentrations, and IC50 values were determined from a 4-parameter robust fit model with the Prism software (GraphPad Software). Results were expressed as pIC50 (negative logarithm of IC50) and subsequently converted to pKi (negative logarithm of dissociation constant, Ki) using the Cheng-Prusoff equation.

[2] = tested on: IL-2 stimulated STAT5 phosphorylation in Tall-1 human T cell line (JAK3); experiment: Cellular JAK3 potency assay: inhibition of IL-2 stimulated pSTAT5 in Tall-1 T cells; assay type: cell-based
Protocol: Assay 2: Cellular JAK3 Potency Assay: Inhibition of IL-2 Stimulated pSTAT5 in Tall-1 T Cells
The potency of test compounds for inhibition of interleukin-2 (IL-2) stimulated STAT5 phosphorylation was measured in the Tall-1 human T cell line (DSMZ) using AlphaLisa. Because IL-2 signals through JAK3, this assay provides a measure of JAK3 cellular potency.
Phosphorylated STAT5 was measured via the AlphaLISA SureFire Ultra pSTAT5 (Tyr694/699) kit (PerkinElmer).
Human T cells from the Tall-1 cell line were cultured in a 37° C., 5% CO2 humidified incubator in RPMI (Life Technologies) supplemented with 15% Heat Inactivated Fetal Bovine Serum (FBS, Life Technologies), 2 mM Glutamax (Life Technologies), 25 mM HEPES (Life Technologies) and 1× Pen/Strep (Life Technologies). Compounds were serially diluted in DMSO and dispensed acoustically to empty wells. Assay media (phenol red-free DMEM (Life Technologies) supplemented with 10% FBS (ATCC)) was dispensed (4 μL/well) and plates shaken at 900 rpm for 10 inns. Cells were seeded at 45,000 cells/well in assay media (4 μL/well), and incubated at 37° C., 5% CO2 for 1 hour, followed by the addition of IL-2 (R&D Systems; final concentration 300 ng/ml) in pre-warmed assay media (4 μL) for 30 minutes. After cytokine stimulation, cells were lysed with 6 ul of 3× AlphaLisa Lysis Buffer (PerkinElmer) containing 1× PhosStop and Complete tablets (Roche). The lysate was shaken at 900 rpm for 10 minutes at room temperature (RT). Phosphorylated STAT5 was measured via the pSTAT5 AlphaLisa kit (PerkinElmer). Freshly prepared acceptor bead mixture was dispensed onto lysate (5 μL) under green filtered <100 lux light. Plates were shaken at 900 rpm for 2 mins, briefly spun down, and incubated for 2 hrs at RT in the dark. Donor beads were dispensed (5 μL) under green filtered <100 lux light. Plates were shaken at 900 rpm for 2 minutes, briefly spun down, and incubated overnight at RT in the dark. Luminescence was measured with excitation at 689 nm and emission at 570 nm using an EnVision plate reader (PerkinElmer) under green filtered <100 lux light.
To determine the inhibitory potency of test compounds in response to IL-2, the average emission intensity of beads bound to pSTAT5 was measured in a human T cell line. IC50 values were determined from analysis of the inhibition curves of signal intensity versus compound concentration. Data are expressed as pIC50 (negative decadic logarithm IC50) values (mean standard deviation).

[3] = biological target: JAK1 (Homo sapiens (Human), UniProt P23458); experiment: Biochemical JAK1 kinase assay (LanthaScreen)
Protocol: as §1, §2, §3, §4

[4] = selectivity, difference of pKi values
[5] = IL-2 stimulated pSTAT5 in Tall-1 T cells
[6] = selectivity JAK3 over JAK1, difference of pKi
[7] = IL-2 stimulated pSTAT5, Tall-1 T cells

Sequence of JAK1 (P23458 whole entry): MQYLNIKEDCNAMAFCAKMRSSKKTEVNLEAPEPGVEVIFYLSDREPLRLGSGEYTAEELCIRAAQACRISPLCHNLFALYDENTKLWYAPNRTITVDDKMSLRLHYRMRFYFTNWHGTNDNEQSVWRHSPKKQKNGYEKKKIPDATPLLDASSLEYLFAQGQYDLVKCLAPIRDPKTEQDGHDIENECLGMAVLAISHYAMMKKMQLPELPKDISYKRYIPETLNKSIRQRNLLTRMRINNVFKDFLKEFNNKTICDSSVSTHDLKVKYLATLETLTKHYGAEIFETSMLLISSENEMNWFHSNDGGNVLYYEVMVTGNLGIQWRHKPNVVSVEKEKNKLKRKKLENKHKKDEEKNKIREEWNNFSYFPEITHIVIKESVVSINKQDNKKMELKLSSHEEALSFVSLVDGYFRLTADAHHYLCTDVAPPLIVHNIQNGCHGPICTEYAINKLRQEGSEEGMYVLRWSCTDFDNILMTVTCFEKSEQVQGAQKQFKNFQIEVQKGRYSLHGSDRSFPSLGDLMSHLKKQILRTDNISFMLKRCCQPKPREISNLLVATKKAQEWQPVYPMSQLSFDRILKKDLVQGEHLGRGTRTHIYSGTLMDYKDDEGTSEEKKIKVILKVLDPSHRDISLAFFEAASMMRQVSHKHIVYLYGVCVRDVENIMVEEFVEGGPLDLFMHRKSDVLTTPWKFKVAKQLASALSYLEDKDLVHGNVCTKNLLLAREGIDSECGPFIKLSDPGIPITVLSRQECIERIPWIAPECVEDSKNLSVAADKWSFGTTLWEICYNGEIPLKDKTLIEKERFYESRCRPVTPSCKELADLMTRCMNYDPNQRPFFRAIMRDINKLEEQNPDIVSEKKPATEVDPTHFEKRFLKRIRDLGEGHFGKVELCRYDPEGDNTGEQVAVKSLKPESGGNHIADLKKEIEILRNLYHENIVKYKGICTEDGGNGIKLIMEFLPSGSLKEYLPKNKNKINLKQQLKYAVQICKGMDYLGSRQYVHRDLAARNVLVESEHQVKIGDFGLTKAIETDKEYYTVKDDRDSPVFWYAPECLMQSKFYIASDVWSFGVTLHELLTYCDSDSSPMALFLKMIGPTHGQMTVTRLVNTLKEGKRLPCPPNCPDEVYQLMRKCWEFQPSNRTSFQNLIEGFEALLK
Sequence of JAK3 (P52333 whole entry): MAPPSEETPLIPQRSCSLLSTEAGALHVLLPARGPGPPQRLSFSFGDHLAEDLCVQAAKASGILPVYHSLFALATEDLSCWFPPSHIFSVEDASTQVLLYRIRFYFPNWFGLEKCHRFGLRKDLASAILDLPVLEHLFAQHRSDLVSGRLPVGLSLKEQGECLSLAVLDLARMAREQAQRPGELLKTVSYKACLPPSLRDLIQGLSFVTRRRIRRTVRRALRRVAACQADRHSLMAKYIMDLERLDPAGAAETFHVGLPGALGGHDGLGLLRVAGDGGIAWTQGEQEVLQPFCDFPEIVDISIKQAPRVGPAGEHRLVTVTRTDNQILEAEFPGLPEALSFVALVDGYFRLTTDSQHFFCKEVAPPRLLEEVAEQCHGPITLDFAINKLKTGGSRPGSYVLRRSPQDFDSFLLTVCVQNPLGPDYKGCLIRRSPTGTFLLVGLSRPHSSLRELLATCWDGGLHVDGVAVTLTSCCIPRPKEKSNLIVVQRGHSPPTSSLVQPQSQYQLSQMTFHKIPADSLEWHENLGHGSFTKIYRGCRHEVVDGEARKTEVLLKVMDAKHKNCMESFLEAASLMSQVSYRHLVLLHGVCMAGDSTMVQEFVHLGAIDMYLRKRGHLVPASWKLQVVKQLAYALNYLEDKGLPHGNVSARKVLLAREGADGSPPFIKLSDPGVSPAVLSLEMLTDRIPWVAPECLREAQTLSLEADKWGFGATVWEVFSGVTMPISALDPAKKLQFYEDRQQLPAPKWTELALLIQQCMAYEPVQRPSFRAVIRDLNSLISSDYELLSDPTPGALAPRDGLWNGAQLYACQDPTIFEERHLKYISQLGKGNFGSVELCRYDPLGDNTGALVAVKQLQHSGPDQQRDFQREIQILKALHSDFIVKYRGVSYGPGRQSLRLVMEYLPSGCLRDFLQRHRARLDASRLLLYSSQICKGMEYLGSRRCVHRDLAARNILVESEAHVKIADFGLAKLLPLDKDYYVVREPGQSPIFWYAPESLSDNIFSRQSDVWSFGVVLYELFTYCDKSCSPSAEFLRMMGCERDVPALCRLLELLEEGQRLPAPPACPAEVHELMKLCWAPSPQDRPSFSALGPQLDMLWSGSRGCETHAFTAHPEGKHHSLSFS

SMILES: C=CC(=O)N1CC(C)(CCn2c(=O)ccc3cnc(Nc4ccc(N5CCN(C)CC5)cc4)nc32)C1 [Example 260]
- JAK 3 (pKi) [1]: B (B represents pKi value between 9 and 10 (Ki between 1 nM and 0.1 nM))
- JAK3 (pKi)-JAK1 (pKi) [1, 4]: A (A represents a value of 3 or above)
- Tall-1 (pIC50) [2, 5]: A (A represents a pIC50 value≥7.5 (IC50≤32 nM))
- JAK 1 (pKi) [3]: E (E represents a pKi value of 7 or below (Ki of 100 nM or above))

SMILES: C=CC(=O)N1CCN(CCn2c(=O)ccc3cnc(Nc4ccc(N5C[C@@H](C)N(C)[C@@H](C)C5)cc4)nc32)[C@@H](CC)C1 [Example 222]
- JAK 3 (pKi) [1]: B (B represents pKi value between 9 and 10 (Ki between 1 nM and 0.1 nM))
- JAK3 (pKi)-JAK1 (pKi) [1, 6]: A (A represents a value of 3 or above)
- Tall-1 (pIC50) [2, 7]: A (A represents a pIC50 value≥7.5 (IC50≤32 nM))
- JAK 1 (pKi) [3]: E (E represents a pKi value of 7 or below (Ki of 100 nM or above))

SMILES: C=CC(=O)N1CCN(CCn2c(=O)ccc3cnc(Nc4cnn(C)c4)nc32)[C@@H](CC#N)C1 [Example 261]
- JAK 3 (pKi) [1]: B (B represents pKi value between 9 and 10 (Ki between 1 nM and 0.1 nM))
- JAK3 (pKi)-JAK1 (pKi) [1, 4]: A (A represents a value of 3 or above)
- Tall-1 (pIC50) [2, 5]: B (B represents a pC50 value between 6.7 (included) and 7.5 (IC50 between 200 nM and 32 nM))
- JAK 1 (pKi) [3]: E (E represents a pKi value of 7 or below (Ki of 100 nM or above))

SMILES: C=CC(=O)N1CCN(CCn2c(=O)ccc3cnc(Nc4ccccc4)nc32)CC1 [Example 40]
- JAK 3 (pKi) [1]: B (B represents pKi value between 9 and 10 (Ki between 1 nM and 0.1 nM))
- JAK3 (pKi)-JAK1 (pKi) [1, 6]: A (A represents a value of 3 or above)
- Tall-1 (pIC50) [2, 7]: C (C represents a pIC50 value between 6 and 6.7 (IC50 between 1 μM and 200 nM))
- JAK 1 (pKi) [3]: E (E represents a pKi value of 7 or below (Ki of 100 nM or above))

SMILES: C=CC(=O)N1CCN(C(C)Cn2c(=O)ccc3cnc(Nc4ccc(N5CCN(C)CC5)cc4)nc32)CC1 (stereo not drawn) [Example 218]
- JAK 3 (pKi) [1]: C (C represents a pKi value between 8 and 9 (Ki between 10 nM and 1 nM))
- JAK3 (pKi)-JAK1 (pKi) [1, 6]: B (B represents a value of 2.5 to 3)
- Tall-1 (pIC50) [2, 7]: C (C represents a pIC50 value between 6 and 6.7 (IC50 between 1 μM and 200 nM))
- JAK 1 (pKi) [3]: E (E represents a pKi value of 7 or below (Ki of 100 nM or above))

SMILES: C=CC(=O)N1CC(CCn2c(=O)ccc3cnc(Nc4ccn(CC)n4)nc32)C1 [Example 254]
- JAK 3 (pKi) [1]: B (B represents pKi value between 9 and 10 (Ki between 1 nM and 0.1 nM))
- JAK3 (pKi)-JAK1 (pKi) [1, 4]: A (A represents a value of 3 or above)
- Tall-1 (pIC50) [2, 5]: B (B represents a pC50 value between 6.7 (included) and 7.5 (IC50 between 200 nM and 32 nM))
- JAK 1 (pKi) [3]: E (E represents a pKi value of 7 or below (Ki of 100 nM or above))

SMILES: C=CC(=O)N1CCN(CCn2c(=O)ccc3cnc(Nc4cnn(C5CCN(C)CC5)c4)nc32)CC1 [Example 43]
- JAK 3 (pKi) [1]: B (B represents pKi value between 9 and 10 (Ki between 1 nM and 0.1 nM))
- JAK3 (pKi)-JAK1 (pKi) [1, 6]: A (A represents a value of 3 or above)
- Tall-1 (pIC50) [2, 7]: C (C represents a pIC50 value between 6 and 6.7 (IC50 between 1 μM and 200 nM))
- JAK 1 (pKi) [3]: E (E represents a pKi value of 7 or below (Ki of 100 nM or above))

SMILES: C=CC(=O)N1CCN(CCn2c(=O)ccc3cnc(Nc4ccc(N5C[C@@H](C)N(C)[C@H](C)C5)cc4)nc32)[C@@H](C)C1 [Example 199]
- JAK 3 (pKi) [1]: B (B represents pKi value between 9 and 10 (Ki between 1 nM and 0.1 nM))
- JAK3 (pKi)-JAK1 (pKi) [1, 6]: A (A represents a value of 3 or above)
- Tall-1 (pIC50) [2, 7]: A (A represents a pIC50 value≥7.5 (IC50≤32 nM))
- JAK 1 (pKi) [3]: E (E represents a pKi value of 7 or below (Ki of 100 nM or above))

SMILES: C=CC(=O)N1CC(CCn2c(=O)ccc3cnc(Nc4ccc(N5C[C@@H](C)N(C)[C@H](C)C5)cc4)nc32)C1 [Example 264]
- JAK 3 (pKi) [1]: B (B represents pKi value between 9 and 10 (Ki between 1 nM and 0.1 nM))
- JAK3 (pKi)-JAK1 (pKi) [1, 4]: A (A represents a value of 3 or above)
- Tall-1 (pIC50) [2, 5]: A (A represents a pIC50 value≥7.5 (IC50≤32 nM))
- JAK 1 (pKi) [3]: E (E represents a pKi value of 7 or below (Ki of 100 nM or above))

— patent US11697648B2, “Fused pyrimidine pyridinone compounds as JAK inhibitors” (THERAVANCE BIOPHARMA R&D IP, LLC, priority 2019, dated 2023)
